{
  "source": "patent US5958966A",
  "about": "“Treatment of aberrant cellular states with biomodulators” (University of New Mexico, priority 1995, dated 1999)",
  "key": {"canine glioma (CG) cells": {"system": "canine glioma (CG) cells", "assay": "proton NMR T-2* linewidth of canine glioma cells", "type": "cell-based", "design": "T-2* linewidth / T-2* linewidth after treatment withdrawal / T-2* linewidth after t-butanol extraction: unit not given here", "conditions": "for T-2* linewidth after treatment withdrawal: 4 weeks treatment then 1 week without, mean ± SD of 3; for T-2* linewidth after t-butanol extraction: treated CG cells", "procedure": "The cells used for all these experiments are between passage 30 and passage 75.\nThe cell surface oligosaccharide display was assessed by methods developed previously. In brief, cells from a sub-culturing were aliquotted into 96 well trays at 5×10^5 cells per ml, 100 μL aliquots. […] Optimal lectin concentrations (5 μg/ml)were used to give 80 to 90% saturation of the available sites. Three carbohydrate ligands at 10 μg concentrations in triplicate or quadruplicate were then used to prepare competition curves for the lectin binding. The Bound over Free (B/F) ratio was calculated and the Ligand microprocessor program was used to determine the optimal fit of the data to a polynomial generated model. The Gibb's Free Energy (GFE) was calculated from the Scatchard data on the competition assay by the following equation: GFE=-RT 1n Kequit. The proton NMR linewidth measurements were conducted as described previously."}, "B16 melanoma cells": {"system": "B16 melanoma cells", "assay": "effect of swainsonine on B16 melanoma solid tumor growth", "type": "in vivo, mouse", "conditions": "for inhibition of B16 growth: 1.0, 0.01 and 0.001 μg Sw (p<0.5)", "procedure": "The B16 melanoma cells were purchased from American Type Culture Collection (ATCC). They were maintained in complete A-MEM (SIGMA) (with 10% fetal calf serum (FCS) (Sigma), 100 U/ml penicillin (Sigma), 100 μg/ml streptomycin (Sigma) and 2 mM utamine (Sigma)) in Corning 75 cm^2 straight necked flasks (T75) and grown with 5.5% CO2 in air with 95% humidity in a New Brunswick Scientific water jacketed incubator. […] They were harvested using 1× Trypsin-EDTA (Sigma), centrifuged at 100×g with a Beckman TJ6 centrifuge, counted using a hemocytometer and stained with trypan blue to determine viability. The cells used for injection into the mice were washed three times in phosphate buffered saline (PBS), counted and resuspended in PBS at a final concentration of 6×10^6 cells per ml.\nThe swainsonine, purchased from Boehringer Mannheim, was initially suspended in PBS at 100 μg/ml. Subsequent dilutions utilized in the following experiments were made in PBS.\nFifteen female C57B1/6 mice (6 weeks old, from Harlan Sprague Dawley Laboratories) were treated 3 times per week on a Monday-Wednesday-Friday (MWF) schedule for three weeks prior to the injection of the 6×10^5 B16 melanoma cells. The treatment consisted of 0.1 ml (total volume) intraperitoneal injections of swainsonine in the mornings before 9:00 am. The treatment groups were as follows:\nThe MWF treatment with the swainsonine continued after the tumor cell injection until the termination of the study. Once the tumor was palpable, electronic calipers were used to measure the length (l), width (w) and depth (d) of the tumor. The volume of the tumor was then determined by V=πr^2 ×d, with the assumption that the tumor is a […], then r=(l+w)/4.\nThe effect of swainsonine on the growth of B16 melanoma solid tumors in vivo was investigated by pretreating the mice for 3 weeks and then injecting melanoma cells into the right shoulder area. Palpable tumors in the control group (0.0 μg Sw) were present on day 5 post tumor cell injection. These tumors were the size of a grain of rice and could not be accurately measured. FIG. 66 graphically presents tumor growth rate versus time. Tumors whose size could be reliably measured were present on day 7 in the controls (Table I). […] This was a delay of two day in both instances. The 0.1 μg Sw slowed growth of the melanoma tumor. The tumors in the 0.1 μg Sw group were 74% (p=0.03) smaller in size on day 9 compared to the controls and 68% (p=0.003) smaller on day 11."}, "plaque forming cells": {"system": "plaque forming cells", "conditions": "cited from earlier work"}, "α-mannosidase II": {"system": "α-mannosidase II", "conditions": "cited from earlier work"}, "solid tumor models": {"system": "solid tumor models", "conditions": "Dennis 1986, 1989, 1990; cited from earlier work"}},
  "note": "Entries after “also recorded” stand apart in the source; their conditions may differ.",
  "data": [
    {"compound": "O[C@H]1[C@H]2[C@H](O)CCCN2C[C@H]1O", "note": "[Swainsonine, swainsonine]", "values": [
      {"measurement": "T-2* linewidth after treatment withdrawal", "setting": "canine glioma (CG) cells; 213 k", "result": "520 ± 26"},
      {"measurement": "T-2* linewidth after treatment withdrawal", "setting": "canine glioma (CG) cells; 223 k", "result": "510 ± 18"},
      {"measurement": "T-2* linewidth after treatment withdrawal", "setting": "canine glioma (CG) cells; 233 k", "result": "430 ± 15"},
      {"measurement": "T-2* linewidth after treatment withdrawal", "setting": "canine glioma (CG) cells; 243 k", "result": "360 ± 10"},
      {"measurement": "linewidth after withdrawal versus untreated control", "setting": "canine glioma (CG) cells; 4 weeks treatment, 1 week withdrawal", "result": "still significantly different from control values"},
      {"measurement": "linewidth change", "setting": "canine glioma (CG) cells; CG cells, biomodulator treatment versus control, listed as Sw", "result": "significant (P>0.01) decreases in linewidth; also recorded: higher level of linewidth reduction than the PWM treatment"},
      {"measurement": "T-2* linewidth", "setting": "canine glioma (CG) cells; Four week of treatment, 213 k, mean ± SD of triplicate", "result": "480 ± 35"},
      {"measurement": "T-2* linewidth", "setting": "canine glioma (CG) cells; Four week of treatment, 223 k, mean ± SD of triplicate", "result": "330 ± 40"},
      {"measurement": "T-2* linewidth", "setting": "canine glioma (CG) cells; Four week of treatment, 233 k, mean ± SD of triplicate", "result": "300 ± 8"},
      {"measurement": "T-2* linewidth", "setting": "canine glioma (CG) cells; Four week of treatment, 243 k, mean ± SD of triplicate", "result": "230 ± 10"},
      {"measurement": "T-2* linewidth", "setting": "canine glioma (CG) cells; One week of treatment, 213 k", "result": 580},
      {"measurement": "T-2* linewidth", "setting": "canine glioma (CG) cells; One week of treatment, 223 k", "result": 325},
      {"measurement": "T-2* linewidth", "setting": "canine glioma (CG) cells; One week of treatment, 233 k", "result": 285},
      {"measurement": "T-2* linewidth", "setting": "canine glioma (CG) cells; One week of treatment, 243 k", "result": 265},
      {"measurement": "T-2* linewidth after t-butanol extraction", "setting": "canine glioma (CG) cells; 213 k, extracted control 367 ± 15", "result": "316 ± 33"},
      {"measurement": "T-2* linewidth after t-butanol extraction", "setting": "canine glioma (CG) cells; 223 k, extracted control 337 ± 29", "result": "271 ± 13"},
      {"measurement": "T-2* linewidth after t-butanol extraction", "setting": "canine glioma (CG) cells; 233 k, extracted control 299 ± 30", "result": "243 ± 29"},
      {"measurement": "T-2* linewidth after t-butanol extraction", "setting": "canine glioma (CG) cells; 243 k, extracted control 229 ± 9", "result": "194 ± 7"},
      {"measurement": "delay of onset of tumor growth", "setting": "B16 melanoma cells; 0.1 μg Sw", "result": "two"},
      {"measurement": "tumor size reduction versus control", "setting": "B16 melanoma cells; 0.1 μg Sw, day 9, p=0.03", "result": 74, "unit": "%"},
      {"measurement": "tumor size reduction versus control", "setting": "B16 melanoma cells; 0.1 μg Sw, day 11, p=0.003", "result": 68, "unit": "%"},
      {"measurement": "first day of palpable tumors", "setting": "B16 melanoma cells; 0.1 μg Sw, control day 5", "result": 7, "unit": "days"},
      {"measurement": "first day of measurable tumors", "setting": "B16 melanoma cells; 0.1 μg Sw, control day 7", "result": 9, "unit": "days"},
      {"measurement": "effect on growth", "setting": "B16 melanoma cells; 1.0 μg Sw", "result": "causes enhanced growth"},
      {"measurement": "inhibition of B16 growth", "setting": "B16 melanoma cells", "result": "no effect on delaying growth"},
      {"measurement": "inhibition of B16 growth", "setting": "B16 melanoma cells; listed as Sw", "result": "less effective at inhibiting the B16 growth"},
      {"measurement": "PFC numbers, SW alone", "setting": "plaque forming cells; SW alone", "result": "no changes in PFC numbers"},
      {"measurement": "antibody formation after immunosuppressive factor", "setting": "plaque forming cells; Sw 3.7-100 mg/kg i.p. 5 days", "result": "return to normal levels of antibody production"},
      {"measurement": "inhibition of α-mannosidase II / anticancer effects", "setting": "α-mannosidase II", "result": "known to have anticancer effects possibly mediated through its inhibition of α-mannosidase II"},
      {"measurement": "growth in other solid tumor models", "setting": "solid tumor models", "result": "delay growth in several other solid tumor models"}
    ]}
  ]
}
